In patent US8404738B2 (Hoffmann-La Roche Inc., priority 2011, dated 2013):

Assays:
[1] = biological target: T1, recombinant human HDAC8 (Homo sapiens, UniProt Q9BY41); assay: HDAC8 inhibition: recombinant HDAC8 fluorometric assay; format: biochemical; conditions: recombinant human HDAC8, substrate Ac-Arg-His-Lys-Lys(ε-acetyl)-AMC; read-out: HDAC8 IC50
T1 construct: made in house; host or cells: insect cells
T1 sequence (Q9BY41 1-377): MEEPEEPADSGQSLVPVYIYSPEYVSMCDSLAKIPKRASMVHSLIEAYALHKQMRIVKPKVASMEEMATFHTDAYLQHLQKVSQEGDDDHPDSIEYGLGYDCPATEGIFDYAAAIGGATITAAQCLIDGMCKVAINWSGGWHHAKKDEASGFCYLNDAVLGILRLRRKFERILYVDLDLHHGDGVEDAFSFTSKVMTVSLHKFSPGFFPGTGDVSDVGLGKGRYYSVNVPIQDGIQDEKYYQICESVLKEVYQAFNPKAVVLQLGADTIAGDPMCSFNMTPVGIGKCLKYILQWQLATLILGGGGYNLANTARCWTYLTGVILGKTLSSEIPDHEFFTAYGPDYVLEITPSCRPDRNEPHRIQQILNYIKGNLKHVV
Method: HDAC8 Inhibition by Novel Compounds: Recombinant HDAC8 Fluorometric Assay.
A competitive inhibitory assay of HDAC8 was carried out by using recombinant HDAC8 and a commercial substrate Ac-Arg-His-Lys-Lys(ε-acetyl)-AMC.
Compounds were tested for their ability to inhibit histone deacetylase 8 using an in vitro deacetylation assay. The enzyme source for this assay was recombinant human HDAC8 protein expressed and purified from insect cells. […] The substrate consisted of a commercial product Ac-Arg-His-Lys-Lys(ε-acetyl)-AMC (substrate is available from Cayman Chemical). […] 1 μl of half-log diluted compounds were added into wells and incubated for 15 min at rt. After that, 8 μl of substrate solution was transferred to the wells and incubated for 30 min at rt. After deacetylation of the substrate by incubation with HDAC8 enzyme, subsequent exposure to a developing reagent produced a fluorophore that was directly proportional to the level of deacetylation. […] The fluorescence signal was measured by a FlexStation3 plate reader (excitation wave length 340-360 nm; emission wave length 440-465 nm). The HDAC8 IC50 was calculated after normalization and curve fitting using XLfit4.0 software. Inhibition %=[Mean(top)−signal(sample)]×100/[Mean(top)−Mean(bottom)].

[2] = biological target: T2, HDAC6 (Homo sapiens, UniProt Q9UBN7); assay: Tubulin acetylation cytoblot assay (A549 cells); format: cell-based; conditions: 17-18 h incubation, tubulin acetylation as marker of HDAC6 inhibition, read-out: Tub-Ac EC50
T2 construct: endogenous in cells; host or cells: A549 cells
T2 sequence (Q9UBN7 1-1215): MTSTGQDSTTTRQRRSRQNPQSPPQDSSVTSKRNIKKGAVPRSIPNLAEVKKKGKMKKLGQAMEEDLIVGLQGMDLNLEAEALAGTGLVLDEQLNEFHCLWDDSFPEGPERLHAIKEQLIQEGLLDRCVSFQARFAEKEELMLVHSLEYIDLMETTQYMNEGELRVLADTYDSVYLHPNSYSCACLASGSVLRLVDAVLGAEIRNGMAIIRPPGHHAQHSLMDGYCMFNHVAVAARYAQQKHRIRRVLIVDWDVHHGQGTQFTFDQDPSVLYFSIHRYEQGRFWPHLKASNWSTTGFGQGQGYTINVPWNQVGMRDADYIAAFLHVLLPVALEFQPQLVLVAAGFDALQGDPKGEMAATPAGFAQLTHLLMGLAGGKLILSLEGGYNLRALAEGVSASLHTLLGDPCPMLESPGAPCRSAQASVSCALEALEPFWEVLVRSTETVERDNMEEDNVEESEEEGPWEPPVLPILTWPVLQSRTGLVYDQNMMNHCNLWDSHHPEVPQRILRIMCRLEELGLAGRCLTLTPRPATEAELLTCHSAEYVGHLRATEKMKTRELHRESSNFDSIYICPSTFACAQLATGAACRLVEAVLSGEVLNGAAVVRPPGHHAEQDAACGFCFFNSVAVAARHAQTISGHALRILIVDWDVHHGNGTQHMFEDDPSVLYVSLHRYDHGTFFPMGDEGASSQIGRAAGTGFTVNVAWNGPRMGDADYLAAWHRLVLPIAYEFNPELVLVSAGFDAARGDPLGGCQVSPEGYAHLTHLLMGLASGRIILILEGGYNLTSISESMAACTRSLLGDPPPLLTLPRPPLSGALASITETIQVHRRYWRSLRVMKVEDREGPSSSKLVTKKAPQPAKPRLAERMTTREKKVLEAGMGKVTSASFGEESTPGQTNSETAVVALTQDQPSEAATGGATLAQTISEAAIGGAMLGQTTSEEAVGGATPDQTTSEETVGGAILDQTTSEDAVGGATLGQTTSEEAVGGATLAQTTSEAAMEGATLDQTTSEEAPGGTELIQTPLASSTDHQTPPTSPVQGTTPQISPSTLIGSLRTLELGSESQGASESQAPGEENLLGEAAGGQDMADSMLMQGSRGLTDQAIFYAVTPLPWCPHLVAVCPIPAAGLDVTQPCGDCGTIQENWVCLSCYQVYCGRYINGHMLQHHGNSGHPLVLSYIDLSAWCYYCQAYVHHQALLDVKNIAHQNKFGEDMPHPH
Method: Tubulin Acetylation Induction by Novel Compounds: Tubulin Acetylation Cytoblot Assay.
Tubulin acetylation is a PD marker for HDAC6 inhibition. The extent of tubulin acetylation represents the inhibitory effect on HDAC6.
Novel compounds were tested for their ability to inhibit HDAC6 using a cell-based deacetylation assay. Tubulin acetylation was detected by the anti-acetylated tubulin antibody (Sigma) and horse radish peroxidase (HRP) conjugated secondary antibody (KangChen Bio. Tech.). […] 20 μl of diluted compound solution was transferred to the cell culture plate and incubated for 17-18 h. After medium removal and fixation by formaldehyde (3.7% paraformaldehyde in TBS), the cells in the plates were treated with 180 μl of −20° C. MeOH and incubated for 5 min at rt. The cell lysis was incubated with 75 μl of primary anti-acetylated tubulin antibody and secondary HRP conjugated antibody solution (1:750 anti-acetylated tubulin, 1:750 HRP conjugated anti-mouse IgG in antibody dilution buffer not containing sodium azide) for 4 h at 4° C. By adding the HRP substrate, enhanced chemiluminescence (ECL) reagent (GE Healthcare) generated luminescence corresponding to the level of tubulin acetylation. So that 75 μl of ECL was added into the wells and the luminescence from each well was immediately quantified by the plate reader. Based on the luminescence reading, the Tub-Ac EC50s against HDAC6 of the tested compounds were calculated by plotting the curve with XLfit4.0 software. Inhibition %=[signal(sample)−Mean(bottom)]×100/[Mean(top)−Mean(bottom)]

[3] = test system: p21 promoter-luciferase construct; assay: p21 reporter gene induction (HeLa cells, p21 promoter-luciferase construct); conditions: for p21 RP3: relative gene level of p21 compared to MS275 at 3 μM; for p21 RP10: relative level of p21 compared to MS275 at 10 μM; for p21 RP30: relative level of p21 compared to MS275 at 30 μM;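 for all read-outs here: transfected HeLa cells exposed to compound for 15 h, luciferase luminescence read from lysates, p21 promoter lacks p53 site, proxy for cellular HDAC1/2/3 inhibition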
Method: As a surrogate for in-cell HDAC1/2/3 inhibition, p21 induction was used as a counterscreen to evaluate the selectivity of the compounds in the present invention toward HDAC6 or HDAC8.
The novel compounds of the present invention were tested for their ability to induce p21 gene expression using a reporter gene assay involving HeLa cells transfected with a p21 promoter-luciferase construct. The p21 promoter contained the Sp1/Sp3 binding site for HDAC but not the upstream p53 binding site. Briefly, the day before transfection, HeLa cells were seeded at 11,000 cells/well in a 96-well culture plate and incubated at 37° C. in 5% CO2 overnight. A transfection media was prepared prior to transfection according to the following procedure: (1) 5 μl serum-free DMEM, 0.15 μl Fugene 6 reagent, 40 ng p21-luc, 10 ng GFP were mixed gently and incubated at rt for 30 minutes; (2), then 98 μl DMEM (with 10% FBS, 1% penicillin and streptomycin) was added to the DNA: Fugene 6 reagent complex and mixed gently. For transfection, the medium was removed and replaced with 100 μl/well transfection media which was prepared according to the procedure above. After incubating the cells for 24 hours at 37° C. in 5% CO2, fresh media and test compounds were added to the wells and the cells further incubated for 15 hours at 37° C. in 5% CO2. Cells were lysed by adding 80 μl/well of a cell culture lysis reagent (Promega). 50 μl of each lysate was taken for GFP detection using an excitation wavelength of 486 nm and detection at 527 nm. 100 μl luciferase assay reagent (Promega) was then added to every 20 μl cell lysate for luminometer detection.

Structure (SMILES) | IC50 [1] [µM] | EC50 [2] [µM] | p21 RP3 [3] | p21 RP10 [3] | p21 RP30 [3]
O=C(NO)c1ccc(NC2CCN(c3cc(Cl)ccc3F)C2=O)cc1 (centres unmarked) [Example 22, 4-[1-(5-Chloro-2-fluoro-phenyl)-2-oxo-pyrrolidin-3-ylamino]-N-hydroxy-benzamide] | 1.93 | 1.32 | 0.42 | 0.28 | 0.39
O=C(NO)c1ccc(NC2CCN(c3ccc(Cl)c(Cl)c3)C2=O)cc1 (centres unmarked) [Example 25, 4-[1-(3,4-Dichloro-phenyl)-2-oxo-pyrrolidin-3-ylamino]-N-hydroxy-benzamide] | 0.97 | 4.33 | 0.00 | 0.14 | −0.03
O=C(NO)c1ccc(NC2CCN(c3cc(Cl)cc(Cl)c3)C2=O)cc1 (centres unmarked) [Example 26, 4-[1-(3,5-Dichloro-phenyl)-2-oxo-pyrrolidin-3-ylamino]-N-hydroxy-benzamide] | 4.69 | 4.94 | 0.42 | 0.06 | 0.04
O=C(NO)c1ccc(NC2CCN(c3cccc(Oc4ccccc4)c3)C2=O)cc1 (centres unmarked) [Example 30, N-Hydroxy-4-[2-oxo-1-(3-phenoxy-phenyl)-pyrrolidin-3-ylamino]-benzamide] | 3.21 | 2.28 | 0.13 | 0.09 | 0.05
O=C(NO)c1ccc(NC2CCN(c3ccc(Oc4ccccc4)cc3)C2=O)cc1 (centres unmarked) [Example 31, N-Hydroxy-4-[2-oxo-1-(4-phenoxy-phenyl)-pyrrolidin-3-ylamino]-benzamide] | 4.14 | 9.78 | 0.09 | 0.07 | 0.05
O=C(NO)c1ccc(NC2CCN(c3ccc(-n4ccnc4)cc3)C2=O)cc1 (centres unmarked) [Example 34, N-Hydroxy-4-[1-(4-imidazol-1-yl-phenyl)-2-oxo-pyrrolidin-3-ylamino]-benzamide] | 2.89 | 10.6 | 0.36 | 0.12 | 0.06
CN(C)CCOc1cccc(N2CCC(Nc3ccc(C(=O)NO)cc3)C2=O)c1 (centres unmarked) [Example 36, 4-{1-[3-(2-Dimethylamino-ethoxy)-phenyl]-2-oxo-pyrrolidin-3-ylamino}-N-hydroxy-benzamide] | 0.49 | 2.05 | 0.55 | 0.18 | 0.45

More lines, in order of falling IC50 [1], values ahead:

IC50 [1] [µM] | EC50 [2] [µM] | Structure (SMILES) | p21 RP3 [3] | p21 RP10 [3] | p21 RP30 [3]
1.86 | 4.11 | Cc1cc(F)cc(C)c1N1CCC(Nc2ccc(C(=O)NO)cc2)C1=O (centres unmarked) [Example 28, 4-[1-(4-Fluoro-2,6-dimethyl-phenyl)-2-oxo-pyrrolidin-3-ylamino]-N-hydroxy-benzamide] | 0.04 | 0.01 | 0.01
1.01 | 4.69 | O=C(NO)c1ccc(NC2CCN(c3cc(F)cc(Cl)c3)C2=O)cc1 (centres unmarked) [Example 21, 4-[1-(3-Chloro-5-fluoro-phenyl)-2-oxo-pyrrolidin-3-ylamino]-N-hydroxy-benzamide] | 1.56 | 0.48 | 0.28
0.97 | 0.68 | O=C(NO)c1ccc(NC2CCN(c3cccc(-n4cccc4)c3)C2=O)cc1 (centres unmarked) [Example 33, N-Hydroxy-4-[2-oxo-1-(3-pyrrol-1-yl-phenyl)-pyrrolidin-3-ylamino]-benzamide] | 0.45 | 0.41 | 0.18
0.93 | 2.16 | O=C(NO)c1ccc(NC2CCN(c3cccc4ccccc34)C2=O)cc1 (centres unmarked) [Example 37, N-Hydroxy-4-(1-naphthalen-1-yl-2-oxo-pyrrolidin-3-ylamino)-benzamide] | 0.04 | 0.04 | 0.06
0.77 | 2.48 | O=C(NO)c1ccc(NC2CCN(c3cccc(Cl)c3Cl)C2=O)cc1 (centres unmarked) [Example 24, 4-[1-(2,3-Dichloro-phenyl)-2-oxo-pyrrolidin-3-ylamino]-N-hydroxy-benzamide] | 0.11 | 0.02 | 0.02
0.75 | 2.38 | O=C(NO)c1ccc(NC2CCN(c3c(Cl)cccc3Cl)C2=O)cc1 (centres unmarked) [Example 27, 4-[1-(2,6-Dichloro-phenyl)-2-oxo-pyrrolidin-3-ylamino]-N-hydroxy-benzamide] | 0.11 | 0.03 | 0.04
0.75 | 13.8 | O=C(NO)c1ccc(NC2CCN(c3ccc(Cl)c(CO)c3)C2=O)cc1 (centres unmarked) [Example 29, 4-[1-(4-Chloro-3-hydroxymethyl-phenyl)-2-oxo-pyrrolidin-3-ylamino]-N-hydroxy-benzamide] | 0.55 | 0.10 | 0.12
0.71 | 0.7 | O=C(NO)c1ccc(NC2CCN(c3cccc(-c4ccccc4)c3)C2=O)cc1 (centres unmarked) [Example 32, 4-(1-Biphenyl-3-yl-2-oxo-pyrrolidin-3-ylamino)-N-hydroxy-benzamide] | 0.38 | 0.08 | 0.15
0.61 | 2.04 | O=C(NO)c1ccc(NC2CCN(c3cccc(-c4cnco4)c3)C2=O)cc1 (centres unmarked) [Example 35, N-Hydroxy-4-[1-(3-oxazol-5-yl-phenyl)-2-oxo-pyrrolidin-3-ylamino]-benzamide] | 0.44 | 0.25 | 0.20
